Experimental data published in US7232798B2, “Neuroprotection and neuroegenisis by administering cyclic prolyl glycine” (priority 2001, dated 2007).

Columns and labels:
[1] = system: cerebellar microexplants (P4); test: Glutamate toxicity in P4 cerebellar microexplants and rescue by cPG; format: cell-based, Wistar rats
Description: Cerebellar Cell Culture Preparing and Coating of Cover Slips
Ten coverslips were placed into a large petri dish and washed in 70% alcohol for 5 minutes, then washed with Millipore H2O. The coverslips were air dried, then coated with Poly-D-Lysine (1 mg/ml stock solution in PBS, 90-100 μl) and incubated for 2 hours at 34 C.
Postnatal day 4 Wistar rats were used for the study. Rats were placed in ice for 1 minute, the heads were decapitated and the cerebellum removed on ice. […] The tissue was sieved through (125 μm pore size gaze) and centrifuged (2 minutes at 60 g) two times for a medium exchange into serum-free BSA-supplemented START V medium (Biochrom). The second centrifugation step was done with 1 ml of START V medium. The microexplants were reconstituted into 500 μl of START V medium and put on ice
Two hours after PDL-coating, the slides were washed with Millipore H2O and air dried. Each slide was placed into a small 35 mm petri dish and 40 μl of START V/cell suspension added. The tissue was incubated for 2 hours at 34 C (settlement period). START V-medium (1 ml) was then added to the petri dish and cultivated at 34 C/5% CO2/100% humidity for 48 hours. […] Finally, the microexplants were rinsed in PBS.
10 μl of toxin (L-glutamate-100 mM in Millipore water) was applied simultaneously with cPG (from bachem, 10 mM stock prepared in PBS and diluted to final concentrations between 1-100 nM) for Study 1. A delay in administration of cPG at 6 hours after glutamate treatment was performed for Study 2.

[2] = system: rat Hippocampal Organotypic cultures exposed to NMDA; settings: lower (1 μM) or higher (50-100 μM) concentrations reduced neuronal damage to a lesser extent; cited from earlier work
[3] = system: 6-OHDA induced nigral-striatal lesion; test: Apomorphine-induced rotations after 6-OHDA induced nigral-striatal lesion; format: in vivo, Wistar rats
Description: Twenty male Wistar rats (280-310 g) were used. After exposing the skull, 6-OHDA (8 μg in a base of 2 μl 0.9% saline containing 1% ascorbic acid) was administered into the right medial forebrain bundle (MFB) using co-ordinates AP +4.7 mm, R 1.6 mmv-8 mm under 3% halothane anaesthesia. 6-OHDA was injected through a 25 G needle connected via a polyethylene catheter to a 100 μl Hamilton syringe. The 6-OHDA was infused by a microdialysis infusion pump at a rate of 0.5 μl/min. The needle was left in the brain for a further 3 minutes before being slowly withdrawn. The skin was sutured with 2.0 silk and the rats were allowed to recover from anaesthesia. The rats were housed in a holding room with free access to food and water at all times except during behavioural testing.
Cyclic PG was dissolved in saline. Four different doses of cPG (0, 0.1 0.5 1 mg/kg, Bachem) were administered intraperitoneally 2 h post lesion.
At 7 days post-lesion, rats were injected with 0.1 mg/kg apomorphine and the number of contralateral rotations/hour was recorded and calculated using a computerised Rotameter (St Diego Instruments). Experimenter was blinded from the treatment groups.

[4] = fetal sheep, cited from earlier work

N[C@@H](CCC(=O)O)C(=O)O [Glutamate, L-glutamate, reference compound]
loss of cerebellum neurons ([1]; Study 1, glutamate treatment alone): 85%

glycine-proline-glutamate [GPE]
concentration giving the highest degree of neuroprotection [2]: 10 µM

O=C1NCC(=O)N2CCC[C@@H]12 [cPG, cyclic Prolyl Glycine]
number of contralateral rotations/hour ([3]; 1 mg cPG intraperitoneally 2 h post lesion, 7 days post-lesion, 0.1 mg/kg apomorphine, n=5, FIG. 5): 154±64.1 rotations/hour | reduction of functional deficit (apomorphine induced rotations) ([3]; highest dose tested (1 mg/kg), ns): 47% | neuron number compared to the normal control group ([1]; a further lower dose of cPG): significant increase | glutamate-induced neurotoxicity ([1]; given either immediately or 6 hours after the glutamate treatment): completely prevented

insulin-like growth factor I [IGF-I]
dose at which all the neuroprotective effects are lost ([4]; 1 μg more neuroprotective than 100 ng): 10 µg | dose that usually killed the sheep fetus [4]: ≥ 100 µg
